Key:
AML12 Cell Line = experiment: Transfection of AML12 Cell Line with FLuc mRNA LNPs (ONE-Glo EX luciferase signal); type: cell-based; details: 200 ng Fluc mRNA-LNP, 24 hours; Table 4
Procedure, shortened: (§1)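 Firefly luciferase luminescence measured 24 h after transfection with 200 ng mRNA-LNP per well in Opti-MEM. Seeding: 5,000 cells/well for B16F10 and MC38.K, 20,000 for AML12. LNPs were pre-incubated 30 min with mouse serum; mRNA content determined by RiboGreen.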

B16F10 Cell Line = experiment: Transfection of B16F10 Cell Line with FLuc mRNA LNPs (ONE-Glo EX luciferase signal); type: cell-based; details: 200 ng Fluc mRNA-LNP, 24 hours; Table 4
Procedure, shortened: as §1

MC38.K Cell Line = experiment: Transfection of MC38.K Cell Line with FLuc mRNA LNPs (ONE-Glo EX luciferase signal); type: cell-based; details: 200 ng Fluc mRNA-LNP, 24 hours; Table 4
Procedure, shortened: as §1

Liver = experiment: Ex-vivo luminescence signal from liver after IV Fluc mRNA LNPs in CD1 mice (IVIS); details: tail vein 1.0 mg/kg Day 0 and Day 2, imaging 18 hours after second dose, Table 4
[1] = test system: Macaca fascicularis Cynomolgus monkeys; experiment: NHP study 2: weekly IV infusion of hEPO mRNA-LNP; type: in vivo; details: weekly IV infusion 0.1 mg/kg hEPO mRNA-LNP
Description: Male cynomolgus monkeys (Biomere, Richmond CA) were 4-6 years old and weighed 4-7 kg at the initiation of dosing. Monkeys were housed in stainless steel cages and provided with Monkey Diet 5038 daily except during times of fasting. Filtered tap water was provided to the animals ad libitum including during fasting times. Temperature of the animal room was kept between 64-84° F., humidity of 30-70%, and with a light/dark cycle of 12 hours except during designated procedures. Pre-dosing treatment with Famotidine (0.5 mg/kg), Diphenhydramine (5 mg/kg), and Dexamethasone (1 mg/kg) was performed prior to dosing of LNPs. Animals received weekly intravenous IV infusions of human erythropoietin encapsulated mRNA lipid nanoparticles (Compound 23, hEPO mRNA-LNP, 0.1 mg/kg). A total of four doses were administered. Prior and after dosing, body weights and temperature were monitored and blood samples were collected pre-dose, 2, 6, 24, 48, and 168 hours. All procedures were conducted according to the approved IACUC guidelines. The results are shown in FIG. 14, FIG. 15, FIG. 16, and FIG. 17.

Balb/c mice = experiment: Multi-dose tolerability screening of NT-beta-Actin mRNA LNPs in naive Balb/c mice; type: in vivo; details: 1.0 mg/kg IV twice a week for four weeks
Description: Multi-dose Tolerability Screening of Compound 23-LNPs: Compound 23 and Benchmark 1 were formulated using a standard process method and injected (1.0 mg/kg, IV) twice a week for four weeks into naïve Balb/c mice. NT-beta-Actin mRNA LNPs were administered IV to Balb/c mice via the tail vein for a total of eight doses (twice a week for four consecutive weeks) at a concentration of 1.0 mg/kg. Bodyweights were monitored and blood was collected pre-dose, 24 hours post first dose, 24 hours post-fourth dose, and 24 hours post-eighth dose and analyzed for cytokines, blood chemistry, and liver/spleen weights. Data analysis was performed in Graphpad Prism 10. Values are reported as mean+/−standard deviation, unless specified otherwise. […] N=6 per group.

MC38.K tumors = experiment: Intratumor delivery of Firefly Luciferase mRNA-LNPs in MC38.K tumor-bearing mice (IVIS); type: in vivo; details: Albino B6 mice, MC38.K tumors 250 mm^3, 1.0 mg/kg intratumoral, IVIS 18 hours post dose
Description: Intratumor Delivery of Compound 23 versus Benchmark 1. Albino B6 mice were inoculated with MC38.K cancer cells. Once tumors reached 250 mm^3, 1.0 mg/kg of Firefly Luciferase mRNA-LNPs containing either Benchmark 1 or Compound 23 as the ionizable lipid component was dosed intratumorally. Takedown and IVIS imaging were performed 18 hours post dose. N=5 mice per group.

C57BL/6 mice = experiment: Multi-dose tolerability screening of NT-beta-Actin mRNA LNPs in MC38.K-inoculated C57BL/6 mice; type: in vivo; details: C57BL/6 mice with MC38.K, 1.0 mg/kg IV twice a week for two weeks
Description: NT-beta-Actin mRNA LNPs with different ionizable lipids were administered IV to C57BL/6 mice, inoculated with MC38.K cells, via the tail vein for a total of four doses (twice a week for two consecutive weeks) at a concentration of 1.0 mg/kg. Bodyweights were monitored and blood was collected pre-dose, 24 hours post first dose, 24 hours post fourth dose, and analyzed for cytokines, blood chemistry, and liver/spleen weights. Compounds 23, 99 and 101 were formulated using a peripheral process method. C57BL/6 mice were inoculated with MC38.K cells. Once tumors had grown, 1.0 mg/kg (Beta-Actin mRNA) of each LNP was intravenously administered twice a week for two weeks. […] N=6 per group for bodyweights, N=3 for blood analysis. Mean+/−SD.

[2] = Formulation of mRNA encapsulated lipid nanoparticles (microfluidic mixing, ribogreen assay); type: physicochemical; details: Table 4
Description: mRNA encapsulated lipid nanoparticles (mRNA LNPs) were formulated using microfluidic mixing with a PNI Ignite instrument. Briefly, lipids (ionizable: structural: helper: PEG) were dissolved in ethanol and mixed with and aqueous solution of mRNA. These mRNA-loaded dispersions were then neutralized via a buffer exchange with a pre-determined buffer overnight. Afterwards, formed LNPs were concentrated with Amicon filter centrifugation, filtered, concentration of mRNA determined through a ribogreen assay, and frozen at −80° C. until use.

Compound	Total Luciferin Signal (RLU) In Vitro - AML12 (AML12 Cell Line) [RLU]	Total Luciferin Signal (RLU) In Vitro - B16F10 (B16F10 Cell Line) [RLU]	Total Luciferin Signal (RLU) In Vitro - MC38.K (MC38.K Cell Line) [RLU]	Total Liver Tissue Luciferin Signal (Photons/s) Ex-vivo - CD1 (Liver) [Photons/s]	tolerability (body weight, temperature, liver blood chemistry) ([1]; 4 doses)	generation of red blood cells (hematocrit, absolute reticulocyte counts) ([1]; four doses)	hEPO protein expression over repeated doses ([1]; four doses)	clearance of the lipid from blood / serum ([1]; repeated doses)	bodyweights or survival rate (Balb/c mice; among Compound 23, Benchmark 1 and delivery buffer)	tolerability (Balb/c mice; versus delivery buffer)	intratumor delivery performance (MC38.K tumors)	survival (C57BL/6 mice)	mRNA encapsulation in LNP [2]
CCCCCCCCCOC(=O)CCCCCCCN(CCO)CCCCCCCC(=O)OC(CCCCCCCC)CCCCCCCCF (stereo not shown) [Compound 23]	4.66E+05	9.60E+05	2.00E+06	5.15E+09	reasonable tolerability	consistent generation of red blood cells over four repeated doses	consistent protein expression over repeated doses	cleared from the blood without any observation of accumulation over repeated doses	Comparable bodyweights or survival rate	comparable tolerability	comparable delivery performance as that of Benchmark 1	all mice survived	–
CCCCCCCCCOC(=O)CCCCCCCN(CCF)CCCCCCCC(=O)OC(CCCCCCCC)CCCCCCCC [Compound 43]	–	–	–	–	–	–	–	–	–	–	–	–	Inherent Lipid Properties Result in No mRNA Encapsulation

— patent US20260116845A1, “LIPIDS AND COMPOSITIONS THEREOF” (Kernal Biologics, Inc., priority 2023, published 2026)
